Results from patent US6337417B1, “N-phenyltetrahydrophthalamic acid derivatives, methods of producing same, and herbicides containing same as effective components” (Central Glass Co., Ltd., priority 1994, dated 2002).

Legend:
Assay type in all cases: in vivo
Design in all cases: key: 5: completely killed; 4: seriously injured; 3: considerably injured; 2: somewhat injured; 1: slightly injured; 0: not injured (normally grown)
Conditions in all cases: 4 weeks after treatment
[1] = tested on: hotarui (bulrush, Scirpus juncoides); test: Experiment 1 flooded soil treatment: hotarui
Text: (§1) Paddy soil (clay loam) was put into a pot so as to have a surface area of 1/15500 ares. Uniformly mixed seeds of several kinds of weeds, viz., nobie (barnyardgrass, Echinochloa spp.), broad-leaved weeds, hotarui (bulrush, Scirpus juncoides) and tamagayatsuri (small-flowered umbrellaplant, Cyperus difformis), were sown in the surface layer of the soil in each pot, and then paddy rice seedlings at the two- or three-leaved stage were transplanted into each pot to a depth of 2 cm, and water was fed into each pot so as to provide a 3 cm deep water layer on the soil surface. After 3 days, in other words at the initial stage of germination of nobie (barnyardgrass, Echinochloa spp.), a predetermined amount of a selected compound obtained in a manner analogous to Example 8 in the form of diluted aqueous solution was dropped into the water layer in each pot. After that, the pots were kept in a glass chamber to allow the paddy rice and the weeds to grow, and after the lapse of 4 weeks from the treatment with the selected compounds, the herbicidal effects and the degree of injury to the paddy rice were evaluated. In the table, the herbicidal effects and the degree of injury to the paddy rice are indicated by numerical values, which have the following meaning.
(§2) 0: not injured (normally grown)

broad-leaved weeds = test: Experiment 1 flooded soil treatment: broad-leaved weeds
Text: as §1, §2

[2] = tested on: aobiyu (slender amaranth, Amaranthus viridis); test: Experiment 2 foliage treatment: aobiyu
Protocol: (§3) Upon seedling stage (two- or three-leaved stage) of rice, cockspur (Panicum crus-galli), garden radish, aobiyu (slender amaranth, Amaranthus viridis) and mehishiba (henry crabgrass, Digitaria cliaris) which were grown on a cultivated soil put in pots of 1/15500 ares, a selected compound obtained in a manner analogous to Example 8, in suspended wettable powder, was sprayed to each plant. After that, the pots were kept in a glass chamber to allow each plant to grow, and after the lapse of 4 weeks from the treatment with the selected compounds the herbicidal effects were evaluated. The evaluation of the herbicidal effects was similarly conducted as to that of Experiment 1.

[3] = tested on: nobie (barnyardgrass, Echinochloa spp.); test: Experiment 1 flooded soil treatment: nobie
Text: as §1, §2

paddy rice = test: Experiment 1 flooded soil treatment: injury to paddy rice
Text: as §1, §2

[4] = tested on: mehishiba (henry crabgrass, Digitaria cliaris); test: Experiment 2 foliage treatment: mehishiba
Protocol: as §3

rice = test: Experiment 2 foliage treatment: rice
Protocol: as §3

[5] = tested on: tamagayatsuri (small-flowered umbrellaplant, Cyperus difformis); test: Experiment 1 flooded soil treatment: tamagayatsuri
Text: as §1, §2

[6] = tested on: cockspur (Panicum crus-galli); test: Experiment 2 foliage treatment: cockspur
Protocol: as §3

garden radish = test: Experiment 2 foliage treatment: garden radish
Protocol: as §3

[7] = tested on: onamomi (heartleaf cocklebur, Xanthium strumarium); test: Experiment 3 foliage treatment: onamomi
Protocol: as §3, with “ichibi (velvetleaf, Abutilon theophrasti), onamomi (heartleaf cocklebur, Xanthium strumarium) (4L stage), noasagao (blue morningglory, Ipomoea indica)” for “rice, cockspur (Panicum crus-galli), garden radish, aobiyu (slender amaranth, Amaranthus viridis)”, “ooinutade (pale smartweed, Persicaria lapathifolia)” for “mehishiba (henry crabgrass, Digitaria cliaris)”, “1/8850” for “1/15500”

[8] = tested on: noasagao (blue morningglory, Ipomoea indica); test: Experiment 3 foliage treatment: noasagao
Protocol: as §3, with “ichibi (velvetleaf, Abutilon theophrasti), onamomi (heartleaf cocklebur, Xanthium strumarium) (4L stage), noasagao (blue morningglory, Ipomoea indica)” for “rice, cockspur (Panicum crus-galli), garden radish, aobiyu (slender amaranth, Amaranthus viridis)”, “ooinutade (pale smartweed, Persicaria lapathifolia)” for “mehishiba (henry crabgrass, Digitaria cliaris)”, “1/8850” for “1/15500”

[9] = tested on: ooinutade (pale smartweed, Persicaria lapathifolia); test: Experiment 3 foliage treatment: ooinutade
Protocol: as §3, with “ichibi (velvetleaf, Abutilon theophrasti), onamomi (heartleaf cocklebur, Xanthium strumarium) (4L stage), noasagao (blue morningglory, Ipomoea indica)” for “rice, cockspur (Panicum crus-galli), garden radish, aobiyu (slender amaranth, Amaranthus viridis)”, “ooinutade (pale smartweed, Persicaria lapathifolia)” for “mehishiba (henry crabgrass, Digitaria cliaris)”, “1/8850” for “1/15500”

[10] = tested on: ichibi (velvetleaf, Abutilon theophrasti); test: Experiment 3 foliage treatment: ichibi
Protocol: as §3, with “ichibi (velvetleaf, Abutilon theophrasti), onamomi (heartleaf cocklebur, Xanthium strumarium) (4L stage), noasagao (blue morningglory, Ipomoea indica)” for “rice, cockspur (Panicum crus-galli), garden radish, aobiyu (slender amaranth, Amaranthus viridis)”, “ooinutade (pale smartweed, Persicaria lapathifolia)” for “mehishiba (henry crabgrass, Digitaria cliaris)”, “1/8850” for “1/15500”

Structure (SMILES) | Herbicidal Effect hotarui ([1]; 12.5 g/10a) | Herbicidal Effect hotarui ([1]; 25 g/10a) | Herbicidal Effect broad-leaved weed (broad-leaved weeds; 12.5 g/10a) | Herbicidal Effect broad-leaved weed (broad-leaved weeds; 25 g/10a) | Herbicidal Effect aobiyu ([2]; 40 g/10a) | Herbicidal Effect aobiyu ([2]; 80 g/10a) | Herbicidal Effect nobie ([3]; 12.5 g/10a) | Herbicidal Effect nobie ([3]; 25 g/10a) | Injury of Paddy (paddy rice; 12.5 g/10a) | Injury of Paddy (paddy rice; 25 g/10a) | Herbicidal Effect mehishiba ([4]; 40 g/10a) | Herbicidal Effect mehishiba ([4]; 80 g/10a) | Herbicidal Effect rice (rice; 40 g/10a) | Herbicidal Effect rice (rice; 80 g/10a) | Herbicidal Effect tamagayatsuri ([5]; 12.5 g/10a) | Herbicidal Effect tamagayatsuri ([5]; 25 g/10a) | Herbicidal Effect cockspur ([6]; 40 g/10a) | Herbicidal Effect cockspur ([6]; 80 g/10a) | Herbicidal Effect garden radish (garden radish; 40 g/10a) | Herbicidal Effect garden radish (garden radish; 80 g/10a) | also measured
CCOC(=O)C1=C(C(=O)N(C(C)=O)c2cc(SCC(=O)OC)c(Cl)cc2F)CCCC1 [Compound No. 12] | 4 | 5 | 5 | 5 | 5 | 5 | 5 | 5 | 0.5 | 0.5 | 1 | 1 | 1 | 1 | 5 | 5 | 1 | 1 | 5 | 5 | –
C#CCOC(=O)C1=C(C(=O)N(C(C)=O)c2cc(SCC(=O)OC)c(Cl)cc2F)CCCC1 [compound 15] | 4 | 4 | 5 | 5 | 4.5 | 5 | 5 | 5 | 0 | 0.5 | 1 | 1 | 1 | 1 | 4 | 5 | 1 | 1 | 5 | 5 | –
CCC(=O)N(C(=O)C1=C(C(=O)OC)CCCC1)c1cc(SCC(=O)OC)c(Cl)cc1F [compound 16] | 5 | 5 | 5 | 5 | 5 | 5 | 5 | 5 | 0.5 | 0.5 | 1 | 1 | 1 | 1 | 5 | 5 | 1 | 1 | 5 | 5 | –
CCCCCOC(=O)C1=C(C(=O)N(C(=O)CC)c2cc(SCC(=O)OC)c(Cl)cc2F)CCCC1 [compound 17] | 4 | 5 | 5 | 5 | 5 | 5 | 5 | 5 | 0 | 0.5 | 1 | 1 | 1 | 1 | 5 | 5 | 2 | 2 | 5 | 5 | –
COC(=O)CSc1cc(N(C(=O)C2=C(C(=O)OC)CCCC2)C(=O)c2cccc(F)c2)c(F)cc1Cl [compound 19] | 5 | 5 | 5 | 5 | 5 | 5 | 5 | 5 | 0 | 0.5 | 1 | 1 | 1 | 1 | 5 | 5 | 1 | 1 | 4 | 5 | –
CCOC(=O)C1=C(C(=O)N(C(=O)CC)c2cc(SCC(=O)OC)c(Cl)cc2F)CCCC1 [compound 33] | – | – | – | – | 5 | 5 | – | – | – | – | 1 | 1 | 1 | 1 | – | – | 1 | 1 | 5 | 5 | Herbicidal Effect onamomi ([7]; 4 g/10a): 5; Herbicidal Effect onamomi ([7]; 8 g/10a): 5; Herbicidal Effect noasagao ([8]; 4 g/10a): 4; Herbicidal Effect noasagao ([8]; 8 g/10a): 5; Herbicidal Effect ooinutade ([9]; 4 g/10a): 5; Herbicidal Effect ooinutade ([9]; 8 g/10a): 5; Herbicidal Effect ichibi ([10]; 4 g/10a): 5; Herbicidal Effect ichibi ([10]; 8 g/10a): 5
CCCCOC(=O)C1=C(C(=O)N(C(=O)CC)c2cc(SCC(=O)OC)c(Cl)cc2F)CCCC1 [compound 35] | – | – | – | – | 5 | 5 | – | – | – | – | 1 | 1 | 1 | 1 | – | – | 1 | 2 | 5 | 5 | Herbicidal Effect onamomi ([7]; 4 g/10a): 4; Herbicidal Effect onamomi ([7]; 8 g/10a): 4; Herbicidal Effect noasagao ([8]; 4 g/10a): 4; Herbicidal Effect noasagao ([8]; 8 g/10a): 5; Herbicidal Effect ooinutade ([9]; 4 g/10a): 5; Herbicidal Effect ooinutade ([9]; 8 g/10a): 5; Herbicidal Effect ichibi ([10]; 4 g/10a): 5; Herbicidal Effect ichibi ([10]; 8 g/10a): 5
